Data from PMC11767490, “A Bis-Glycosylamine Strategy for the Synthesis of Dimeric Iminosugars Based on a DAB-1 Scaffold” (Molecules, 2025).
pIC50: −log10 of the molar value. Like-named read-outs stand apart in the source and are kept apart here. Marks after values point to notes of the source that are not given here.

Experiments:
[1] = target: T1, α-glucosidase (rice) (Oryza sativa subsp. japonica, UniProt Q653V7); test: glycosidase inhibition assay, α-glucosidase from rice; format: biochemical; conditions: for inhibition at 1000 µM: pH 5.1, 1 mM inhibitor, pH 5.1, p-nitrophenyl glycoside 1 mM, read-out: % inhibition at 1 mM concentration of inhibitor
T1 construct: purchased Sigma Chemical Co
T1 sequence (Q653V7 34-885): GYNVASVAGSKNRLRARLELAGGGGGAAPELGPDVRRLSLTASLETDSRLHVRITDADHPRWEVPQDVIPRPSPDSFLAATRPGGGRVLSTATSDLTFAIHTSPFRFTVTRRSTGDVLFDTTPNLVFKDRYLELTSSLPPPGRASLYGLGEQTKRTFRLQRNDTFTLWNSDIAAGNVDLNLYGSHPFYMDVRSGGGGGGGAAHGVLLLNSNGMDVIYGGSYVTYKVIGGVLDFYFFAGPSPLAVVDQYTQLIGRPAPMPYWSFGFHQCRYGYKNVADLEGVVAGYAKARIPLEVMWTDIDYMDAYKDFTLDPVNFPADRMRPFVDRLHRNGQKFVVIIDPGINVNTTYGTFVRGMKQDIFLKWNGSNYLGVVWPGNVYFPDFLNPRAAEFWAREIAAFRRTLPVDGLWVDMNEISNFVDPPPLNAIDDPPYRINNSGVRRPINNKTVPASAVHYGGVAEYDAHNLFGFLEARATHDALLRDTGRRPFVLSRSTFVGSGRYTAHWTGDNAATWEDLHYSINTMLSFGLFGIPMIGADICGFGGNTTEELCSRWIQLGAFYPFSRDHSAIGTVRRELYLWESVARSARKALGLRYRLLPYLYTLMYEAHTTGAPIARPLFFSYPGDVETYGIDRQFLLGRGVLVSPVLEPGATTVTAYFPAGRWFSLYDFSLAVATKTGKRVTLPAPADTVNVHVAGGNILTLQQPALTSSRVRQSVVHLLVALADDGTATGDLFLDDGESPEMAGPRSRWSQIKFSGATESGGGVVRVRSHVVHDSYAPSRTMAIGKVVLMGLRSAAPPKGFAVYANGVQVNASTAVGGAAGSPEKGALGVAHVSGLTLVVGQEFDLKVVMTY
Method: (§1) A prepared sample of DAB-1 8 was also tested under the same conditions for ease of comparison. A first set of biological assays was effected at 1 mM concentration of inhibitor. […] Former results from our laboratories have always followed this empirical rule.
(§2) All the enzymes were purchased from Sigma Chemical Co. In a typical experiment, the glycosidase (0.013 U/mL) was pre-incubated at 33 °C for 5 min in the presence of the inhibitor in 50 mM acetate buffer (pH 5.6, except for rice α-glucosidase pH 5.1 and yeast α-glucosidase pH 6.2). The reaction was started by the addition of the appropriate substrate (p-nitrophenyl glycoside, 1 mM concentration) to a final volume of 250 µL. The reaction was stopped after 10–15 min (depending on the enzyme) by the addition of 350 µL of 0.4 M Na2CO3. The released p-nitrophenolate was quantified spectrophotometrically at 415 nm with a microplate reader (300 µL of the reaction mixture per well). […] All the assays were performed in duplicate (less than 10% variability in each case).

[2] = target: T2, α-glucosidase (Sac. cerevisiae) (Saccharomyces cerevisiae, UniProt P53341); test: glycosidase inhibition assay, α-glucosidase from yeast; format: biochemical; conditions: for inhibition at 1000 µM: pH 6.2, read-out: % inhibition at 1 mM concentration of inhibitor, 1 mM inhibitor, negative values mean activation
T2 construct: purchased Sigma Chemical Co
T2 sequence (P53341 whole entry): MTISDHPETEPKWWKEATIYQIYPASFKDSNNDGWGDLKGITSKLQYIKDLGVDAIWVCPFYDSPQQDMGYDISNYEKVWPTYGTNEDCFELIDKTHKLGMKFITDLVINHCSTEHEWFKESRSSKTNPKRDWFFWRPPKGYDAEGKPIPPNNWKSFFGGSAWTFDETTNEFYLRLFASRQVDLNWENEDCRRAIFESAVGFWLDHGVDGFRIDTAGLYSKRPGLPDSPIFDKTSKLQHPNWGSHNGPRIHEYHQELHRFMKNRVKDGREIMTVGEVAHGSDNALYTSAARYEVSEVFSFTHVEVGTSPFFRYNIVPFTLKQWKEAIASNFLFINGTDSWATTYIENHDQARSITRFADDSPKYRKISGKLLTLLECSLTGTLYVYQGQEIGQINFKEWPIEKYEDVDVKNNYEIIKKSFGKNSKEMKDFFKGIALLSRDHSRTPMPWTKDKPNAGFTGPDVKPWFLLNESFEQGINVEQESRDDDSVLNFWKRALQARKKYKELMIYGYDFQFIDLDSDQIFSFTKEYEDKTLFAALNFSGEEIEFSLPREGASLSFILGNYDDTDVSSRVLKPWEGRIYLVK
Method: as §1, §2

[3] = target: T3, α-galactosidase (green coffee) (Coffea arabica, UniProt Q42656); test: glycosidase inhibition assay, α-galactosidase from green coffee bean; format: biochemical; conditions: 1 mM inhibitor; pH 5.6; read-out: % inhibition at 1 mM concentration of inhibitor
T3 construct: purchased Sigma Chemical Co
T3 sequence (Q42656 16-378): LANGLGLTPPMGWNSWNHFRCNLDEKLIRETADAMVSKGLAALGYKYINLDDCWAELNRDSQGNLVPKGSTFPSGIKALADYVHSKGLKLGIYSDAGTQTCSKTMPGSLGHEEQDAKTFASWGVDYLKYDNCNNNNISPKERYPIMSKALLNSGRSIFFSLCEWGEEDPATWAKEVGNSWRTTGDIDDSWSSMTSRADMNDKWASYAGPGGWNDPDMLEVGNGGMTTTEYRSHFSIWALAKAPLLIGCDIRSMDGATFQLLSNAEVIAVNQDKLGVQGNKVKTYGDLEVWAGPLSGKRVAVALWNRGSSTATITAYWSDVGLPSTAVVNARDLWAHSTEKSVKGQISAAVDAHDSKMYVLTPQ
Method: as §1, §2

[4] = target: T4, α-mannosidase (Jack bean) (Canavalia ensiformis, UniProt C0HJB3); test: glycosidase inhibition assay, α-mannosidase from Jack bean; format: biochemical
T4 construct: purchased Sigma Chemical Co
T4 sequence (C0HJB3 1-981): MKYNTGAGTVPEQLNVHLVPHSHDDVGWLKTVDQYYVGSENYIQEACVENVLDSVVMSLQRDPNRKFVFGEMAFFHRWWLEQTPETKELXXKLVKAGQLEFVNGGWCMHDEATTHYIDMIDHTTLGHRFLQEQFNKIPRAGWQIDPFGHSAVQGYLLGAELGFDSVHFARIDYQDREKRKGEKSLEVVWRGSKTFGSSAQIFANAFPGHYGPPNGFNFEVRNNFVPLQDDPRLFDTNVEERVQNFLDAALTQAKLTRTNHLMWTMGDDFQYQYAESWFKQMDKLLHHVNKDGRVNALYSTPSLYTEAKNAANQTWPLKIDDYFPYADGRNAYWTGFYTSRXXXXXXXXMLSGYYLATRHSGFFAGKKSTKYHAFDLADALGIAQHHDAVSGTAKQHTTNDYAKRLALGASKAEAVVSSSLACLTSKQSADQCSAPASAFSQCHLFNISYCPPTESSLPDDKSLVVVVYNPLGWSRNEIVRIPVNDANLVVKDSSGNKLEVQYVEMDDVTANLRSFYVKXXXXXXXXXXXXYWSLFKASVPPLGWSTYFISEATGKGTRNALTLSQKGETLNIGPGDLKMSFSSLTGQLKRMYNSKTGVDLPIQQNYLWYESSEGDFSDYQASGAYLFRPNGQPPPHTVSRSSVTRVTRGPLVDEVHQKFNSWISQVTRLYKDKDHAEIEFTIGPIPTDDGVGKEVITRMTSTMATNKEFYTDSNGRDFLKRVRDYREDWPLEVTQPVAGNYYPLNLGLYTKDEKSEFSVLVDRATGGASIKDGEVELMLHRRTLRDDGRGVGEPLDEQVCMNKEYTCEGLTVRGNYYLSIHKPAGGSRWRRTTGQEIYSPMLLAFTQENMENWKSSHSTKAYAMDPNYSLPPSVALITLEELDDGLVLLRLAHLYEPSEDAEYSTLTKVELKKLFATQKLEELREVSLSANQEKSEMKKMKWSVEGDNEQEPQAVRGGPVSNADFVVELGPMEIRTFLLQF
Method: as §1, §2

[5] = system: β-glucosidase (almond); test: glycosidase inhibition assay, β-glucosidase from almond; format: biochemical; conditions: pH 5.6; for % inhibition at 1 mM concentration of inhibitor: 1 mM inhibitor
Method: as §1, §2

[6] = target: T5, β-glucosidase (Asp. niger) (Aspergillus niger, UniProt A2RAL4); test: glycosidase inhibition assay, β-glucosidase from A. niger; format: biochemical; conditions: for inhibition at 1000 µM: pH 5.6, 1 mM inhibitor, pH 5.6, read-out: % inhibition at 1 mM concentration of inhibitor
T5 construct: purchased Sigma Chemical Co
T5 sequence (A2RAL4 20-860): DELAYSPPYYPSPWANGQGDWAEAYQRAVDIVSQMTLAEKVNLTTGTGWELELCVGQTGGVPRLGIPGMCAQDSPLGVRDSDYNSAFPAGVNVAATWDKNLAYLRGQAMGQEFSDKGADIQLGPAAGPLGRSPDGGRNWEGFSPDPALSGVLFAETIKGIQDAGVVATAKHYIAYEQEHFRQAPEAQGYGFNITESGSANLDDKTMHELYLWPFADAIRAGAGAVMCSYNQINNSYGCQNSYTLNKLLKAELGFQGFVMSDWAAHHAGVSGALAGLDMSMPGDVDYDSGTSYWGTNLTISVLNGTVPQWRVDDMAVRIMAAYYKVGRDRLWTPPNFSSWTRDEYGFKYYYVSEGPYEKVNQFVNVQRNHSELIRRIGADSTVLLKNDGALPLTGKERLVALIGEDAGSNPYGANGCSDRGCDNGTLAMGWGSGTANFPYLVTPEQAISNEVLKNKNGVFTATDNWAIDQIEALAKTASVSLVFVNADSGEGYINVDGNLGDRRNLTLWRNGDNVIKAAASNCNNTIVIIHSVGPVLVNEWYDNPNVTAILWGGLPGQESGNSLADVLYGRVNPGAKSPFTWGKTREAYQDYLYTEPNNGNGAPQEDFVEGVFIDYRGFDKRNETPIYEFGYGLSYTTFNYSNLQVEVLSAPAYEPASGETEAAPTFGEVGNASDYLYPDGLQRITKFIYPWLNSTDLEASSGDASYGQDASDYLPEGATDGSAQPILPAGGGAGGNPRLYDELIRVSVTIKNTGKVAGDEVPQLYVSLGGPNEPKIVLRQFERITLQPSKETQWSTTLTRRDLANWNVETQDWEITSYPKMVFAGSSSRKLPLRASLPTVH
Method: as §1, §2

[7] = target: T6, β-galactosidase (Asp. orizae) (Aspergillus oryzae, UniProt Q2UCU3); test: glycosidase inhibition assay, β-galactosidase from A. orizae; format: biochemical; conditions: for inhibition at 1000 µM: pH 5.6, read-out: % inhibition at 1 mM concentration of inhibitor; for pIC50: pH 5.6
T6 construct: purchased Sigma Chemical Co
T6 sequence (Q2UCU3 19-1005): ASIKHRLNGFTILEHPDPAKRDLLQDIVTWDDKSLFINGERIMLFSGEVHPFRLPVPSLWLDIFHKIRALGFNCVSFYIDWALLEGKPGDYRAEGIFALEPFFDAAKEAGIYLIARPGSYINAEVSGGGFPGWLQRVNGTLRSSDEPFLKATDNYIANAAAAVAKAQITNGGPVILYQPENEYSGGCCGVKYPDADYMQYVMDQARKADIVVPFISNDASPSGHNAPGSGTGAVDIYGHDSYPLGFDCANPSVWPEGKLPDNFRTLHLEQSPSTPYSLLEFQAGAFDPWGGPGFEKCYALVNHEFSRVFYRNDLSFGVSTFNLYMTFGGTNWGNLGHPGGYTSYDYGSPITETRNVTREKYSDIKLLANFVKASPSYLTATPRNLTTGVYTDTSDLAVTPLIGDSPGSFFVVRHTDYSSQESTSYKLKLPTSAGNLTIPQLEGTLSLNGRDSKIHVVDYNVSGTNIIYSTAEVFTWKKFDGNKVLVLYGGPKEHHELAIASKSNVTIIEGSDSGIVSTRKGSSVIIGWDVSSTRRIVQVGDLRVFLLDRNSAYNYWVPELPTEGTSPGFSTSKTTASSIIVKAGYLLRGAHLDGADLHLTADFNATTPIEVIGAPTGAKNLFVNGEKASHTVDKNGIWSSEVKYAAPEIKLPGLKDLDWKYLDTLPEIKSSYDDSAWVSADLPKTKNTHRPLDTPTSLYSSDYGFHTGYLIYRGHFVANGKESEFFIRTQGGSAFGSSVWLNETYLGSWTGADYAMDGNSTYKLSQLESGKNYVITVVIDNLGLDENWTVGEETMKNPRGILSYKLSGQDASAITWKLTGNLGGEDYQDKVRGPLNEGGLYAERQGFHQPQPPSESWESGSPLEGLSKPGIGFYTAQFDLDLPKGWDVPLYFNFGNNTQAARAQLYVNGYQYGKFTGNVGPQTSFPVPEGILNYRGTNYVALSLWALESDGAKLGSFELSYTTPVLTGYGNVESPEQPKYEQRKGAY
Method: as §1, §2

[8] = system: β-GlcNAc-ase (Jack bean); test: glycosidase inhibition assay, β-N-acetylglucosaminidase from Jack bean; format: biochemical; conditions: for % inhibition at 1 mM concentration of inhibitor: 1 mM inhibitor, pH 5.6, negative values mean activation; for activation of enzyme activity: 1 mM compound
Method: as §1, §2

[9] = system: α-rhamnosidase (Asp. niger); test: glycosidase inhibition assay, α-rhamnosidase from A. niger; format: biochemical; conditions: 1 mM inhibitor; pH 5.6
Method: as §1, §2

[10] = target: fucosidase; parameters: method as in PMID 27138139; conditions: cited from earlier work
[11] = pH 5.6, read-out: % inhibition at 1 mM concentration of inhibitor
[12] = 1 mM inhibitor, pH 5.6, read-out: % inhibition at 1 mM concentration of inhibitor

Row | Structure (SMILES) | inhibition at 1000 µM [1] [%] | inhibition at 1000 µM ([2]; pH 6.2) [%] | inhibition at 1000 µM [3] [%] | inhibition at 1000 µM [4, 11] [%] | % inhibition at 1 mM concentration of inhibitor [5] [%] | inhibition at 1000 µM [6] [%] | inhibition at 1000 µM [7] [%] | % inhibition at 1 mM concentration of inhibitor [8] | % inhibition at 1 mM concentration of inhibitor [9] [%] | inhibition at 1000 µM [4, 12] [%] | pIC50 ([4]; pH 5.6) | other results
1 | C=CC[C@@H]1[C@@H](O)[C@H](O)[C@@H](CO)N1CCOCCOCCN1[C@H](CO)[C@@H](O)[C@H](O)[C@H]1CC=C [16d] | 26 | -20 | < 5 | 32 | 25 | 51 | 58 | –33% ^c | 25 | – | – | enhancement of enzyme activity ([2]; activation, 1 mM compound): 20%; activation of enzyme activity [8]: 33%
2 | C[C@@H]1N[C@@H](CCCC[C@@H]2N[C@@H](C)[C@@H](O)[C@H]2O)[C@H](O)[C@@H]1O [compound 6] | – | – | – | – | – | – | – | – | – | – | – | pIC50 [10]: 6.97; fold increase in the inhibition potency relative to the monomer ([10]; dimer vs monomer): 19 fold
3 | OC[C@@H]1[C@@H](O)[C@H](O)CN1CCCCCCCCN1C[C@@H](O)[C@H](O)[C@H]1CO [13c] | 92 | 88 | 61 | – | 60 | 94 | > 95 | NI (NI means no impact on enzyme activity (less than 5% inhibition or activation)) | 69 | > 95 | 4.74 | pIC50 [7]: 4.51
4 | OC[C@@H]1[C@@H](O)[C@H](O)CN1Cc1cccc(CN2C[C@@H](O)[C@H](O)[C@H]2CO)c1 [13a] | 40 | 88 | 38 | 75 | 13 | 24 | 93 | NI (NI means no impact on enzyme activity (less than 5% inhibition or activation)) | 67 | – | – | –
5 | OC[C@@H]1[C@@H](O)[C@H](O)CN1CCCOCCOCCOCCCN1C[C@@H](O)[C@H](O)[C@H]1CO [13e] | 72 | 65 | 22 | – | 23 | 91 | 81 | NI (NI means no impact on enzyme activity (less than 5% inhibition or activation)) | 18 | > 95 | 4.47 | –
6 | OC[C@@H]1[C@@H](O)[C@H](O)CN1Cc1ccc(CN2C[C@@H](O)[C@H](O)[C@H]2CO)cc1 [13b] | 77 | 95 | < 5 | – | 16 | 43 | > 95 | NI (NI means no impact on enzyme activity (less than 5% inhibition or activation)) | 24 | 84 | – | pIC50 [2]: 4.41; pIC50 [7]: 5.55
7 | OC[C@H]1NC[C@@H](O)[C@@H]1O [DAB-1] | > 95 | > 95 | 11 | – | 95 | > 95 | 76 | 14% | 34 | > 95 | 4.31 | pIC50 [1]: 5.11; pIC50 ([2]; pH 6.2, determined when >95% inhibition at 1 mM, read-out: IC50): 6.16; pIC50 [5]: 4.10; pIC50 [6]: 4.21
8 | OC[C@@H]1[C@@H](O)[C@H](O)CN1CCOCCOCCN1C[C@@H](O)[C@H](O)[C@H]1CO [13d] | ~90 | ~90 | 22 | 82 | 24 | ~90 | 92 | –38% ^c | 46 | – | – | activation of enzyme activity [8]: 38%
